In ChEMBL document CHEMBL5038574, “Selaginellin Derivatives from Selaginella tamariscina and Their Upregulating Effects on Low-Density Lipoprotein Receptor Expression” (J Nat Prod, 2021):
Activity calls are given as the source filed them. The calls are words filed in the database; no cut-off is given here.

Tests used:
Assay type in all cases: functional, cell-based
HepG2 [1] = assay: Up regulation of LDLR mRNA expression in human HepG2 cells at 50 uM for 24 hrs by qPCR analysis
HepG2 [2] = assay: Up regulation of APOC2 mRNA expression in human HepG2 cells at 50 uM for 24 hrs by qPCR analysis
HepG2 [3] = assay: Up regulation of SREBP mRNA expression in human HepG2 cells at 50 uM for 24 hrs by qPCR analysis
HepG2 [4] = assay: Up regulation of protein expression in human HepG2 cells at 10 to 50 uM for 24 hrs by western blot analysis; conditions: dose 10-50 µM
HepG2 [5] = assay: Up regulation of APOE mRNA expression in human HepG2 cells at 50 uM for 24 hrs by qPCR analysis

Structure (SMILES)	Activity (HepG2 [1])	also measured
O=C1C=CC(=C(c2ccc(O)cc2)c2c(-c3ccc(O)cc3)ccc(COc3ccc([C@@]4(c5ccc(O)cc5)c5cc(O)ccc5-c5ccc(CO)c(C#Cc6ccc(O)cc6)c54)cc3)c2C#Cc2ccc(O)cc2)C=C1	inactive	–
COc1ccc(C(=C2C=CC(=O)C=C2)c2c(-c3ccc(O)cc3)ccc(COc3ccc(C(=C4C=CC(=O)C=C4)c4c(-c5ccc(O)cc5)ccc(CO)c4C#Cc4ccc(O)cc4)cc3)c2C#Cc2ccc(O)cc2)cc1	inactive	–
O=C1C=CC(=C(c2ccc(OCc3ccc(-c4ccc(O)cc4)c(C(=C4C=CC(=O)C=C4)c4ccc(O)cc4)c3C#Cc3ccc(O)cc3)cc2)c2c(-c3ccc(O)cc3)ccc(CO)c2C#Cc2ccc(O)cc2)C=C1	inactive	–
O=C1C=CC(=C(c2ccc(O)cc2)c2c(-c3ccc(O)cc3)ccc(COCc3ccc(-c4ccc(O)cc4)c(C(=C4C=CC(=O)C=C4)c4ccc(O)cc4)c3C#Cc3ccc(O)cc3)c2C#Cc2ccc(O)cc2)C=C1	inactive	–
COCc1ccc2c(c1CC(=O)c1ccc(O)cc1)C(c1ccc(OC)cc1)(c1ccc(OC)cc1)c1cc(O)ccc1-2	Active	Activity (HepG2 [2]): Active; Activity (HepG2 [3]): Active; Activity (HepG2 [4]): Active; Activity (HepG2 [5]): Active
O=C1C=CC(=C(c2ccc(O)cc2)c2c(-c3ccc(O)cc3)ccc(CO)c2C#Cc2ccc(O)cc2)C=C1	inactive	–
